The source of these data is patent US7795294B2, “Tetrahydro-2H-indazole pyrazole cannabinoid modulators” (Janssen Pharmaceutica N.V., priority 2006, dated 2010).

Where two headings read alike, the source gives them in different places.

One may read the IC50 as the point on the concentration scale where inhibition reaches its midpoint. One may read the inhibition as the relative decrease from the control value, in per cent.

For one experiment, the target named is T1, human CB1 receptor (Homo sapiens, UniProt P21554).
T1 construct: expressed in transfected cells; host or cells: SK-N-MC cells, stably transfected with pcDNA3 CB-1 (human); semi-purified membrane pellet
Kind of experiment: Binding assay for CB1 agonists or inverse agonists, [3H]-CP-55,940 displacement on membranes of transfected SK-N-MC cells. The following applies: for inhibition at 0.2 µM: read-out: Cannabinoid CB1 Receptor Binding percent inhibition. As to the method:
(§1) The human CB1 and CB2 receptors were stably expressed in SK-N-MC cells transfected with pcDNA3 CB-1 (human) or pcDNA3 CB-2 (human). The cells were grown in T-180 cell culture flasks under standard cell culture conditions at 37° C. in a 5% CO2 atmosphere. The cells were harvested by trysinization and homogenized in a homogenization buffer (10 mM Tris, 0.2 mM MgCl2, 5 mM KCl, with protease inhibitors aprotinin, leupeptin, pepstatin A and bacitracin) and centrifuged (2000 g). The supernatant was then centrifuged in 2M sucrose (31,300 g) to produce a semi-purified membrane pellet. The pellet was resuspended in homogenization and stored at −80° C.
(§2) On the day of the assay, the pellet was thawed on ice and diluted in assay buffer (50 mM Tris-HCl, 5 mM MgCl2, 2.5 mM EDTA, 0.5 mg/mL fatty acid free bovine serum albumin, pH 7.5). […] The plate was covered and incubated for 90 minutes at 30° C. The contents were then aspirated onto a Packard Unifilter GF/C filter bottom plate prewet with 0.5% polyethyleneimine. The wells of the polypropylene plate were rinsed and aspirated seven times with a 0.9% saline-0.5% Tween 20 solution. The Unifilter plate was dried, a scintillation cocktail was added to each well and the counts representing binding were quantitated in a TopCount scintillation counter.
(§3) For compounds tested, an IC50 binding value was obtained from percent inhibition studies in which various test concentrations were used. The binding value was calculated by linear regression. An average value is shown for those compounds where two or more IC50 values were obtained.
(§4) An average value is shown for those compounds where two or more percent inhibition values were obtained.

Another experiment has as its target T2, human CB2 receptor (Homo sapiens, UniProt P34972).
T2 construct: expressed in transfected cells; host or cells: SK-N-MC cells, stably transfected with pcDNA3 CB-2 (human); semi-purified membrane pellet
Description: Binding assay for CB2 agonists or inverse agonists, [3H]-CP-55,940 displacement on membranes of transfected SK-N-MC cells. As to the method:
as §1, §2, §3, §4

Setting [1] is: read-out: Cannabinoid CB2 Receptor Binding percent inhibition.

T1 sequence (P21554 whole entry): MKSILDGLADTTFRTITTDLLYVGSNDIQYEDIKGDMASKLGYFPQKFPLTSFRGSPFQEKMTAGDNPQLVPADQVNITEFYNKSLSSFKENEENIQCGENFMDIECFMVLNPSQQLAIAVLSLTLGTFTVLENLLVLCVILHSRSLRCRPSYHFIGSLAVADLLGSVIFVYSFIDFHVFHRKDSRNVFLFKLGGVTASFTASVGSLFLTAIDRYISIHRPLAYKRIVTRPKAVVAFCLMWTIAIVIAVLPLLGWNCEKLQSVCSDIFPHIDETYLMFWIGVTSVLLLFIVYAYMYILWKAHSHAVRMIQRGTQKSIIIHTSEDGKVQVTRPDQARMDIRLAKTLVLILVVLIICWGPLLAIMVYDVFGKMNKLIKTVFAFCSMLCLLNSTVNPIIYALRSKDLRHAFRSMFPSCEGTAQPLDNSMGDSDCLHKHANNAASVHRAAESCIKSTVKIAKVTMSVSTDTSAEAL
T2 sequence (P34972 whole entry): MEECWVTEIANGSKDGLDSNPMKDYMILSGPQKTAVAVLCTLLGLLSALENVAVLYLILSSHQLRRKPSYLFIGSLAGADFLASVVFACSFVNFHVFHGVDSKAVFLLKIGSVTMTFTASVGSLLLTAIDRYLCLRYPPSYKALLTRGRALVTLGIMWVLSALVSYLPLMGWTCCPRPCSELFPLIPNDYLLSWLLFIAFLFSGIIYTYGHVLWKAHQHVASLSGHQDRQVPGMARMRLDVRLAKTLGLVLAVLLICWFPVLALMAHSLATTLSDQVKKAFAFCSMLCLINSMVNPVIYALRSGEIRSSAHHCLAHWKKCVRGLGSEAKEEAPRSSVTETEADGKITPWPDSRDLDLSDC

For `COc1ccc(-n2nc3c(c2-c2ccc(C)cc2)CCCC3C(=O)NC(C)C23CCC4CC(CC4C2)C3)cc1` (stereo not drawn) [Cpd 2, 2-(4-methoxy-phenyl)-3-p-tolyl-4,5,6,7-tetrahydro-2H-indazole-7-carboxylic acid [1-(octahydro-2,5-methano-inden-5-yl)-ethyl]-amide], the 50% inhibitory concentration (IC50) on human CB1 receptor came to 2130 nM; on human CB2 receptor, 2600 nM.

As for `CCOC(=O)[C@H]1C2CCC(C2)[C@@H]1NC(=O)C1CCCc2c1nn(-c1ccc(OC)cc1)c2-c1ccc(C)cc1` (stereo partly drawn) [Cpd 3, (2S,3S)-3-{[2-(4-methoxy-phenyl)-3-p-tolyl-4,5,6,7-tetrahydro-2H-indazole-7-carbonyl]-amino}-bicyclo[2.2.1]heptane-2-carboxylic acid ethyl ester], the IC50 stood at 60 nM at human CB1 receptor and 370 nM on human CB2 receptor (radioligand CP-55,940 0.2 nM, average where two or more values, read-out: Cannabinoid CB2 Receptor Binding IC50).

On to `CC12CCC(C1)C(C)(C)C2NC(=O)C1CCCc2c1nn(Cc1ccccc1)c2-c1ccc(Cl)cc1` (stereo not drawn) [Cpd 4, 2-benzyl-3-(4-chloro-phenyl)-4,5,6,7-tetrahydro-2H-indazole-7-carboxylic acid (1,3,3-trimethyl-bicyclo[2.2.1]hept-2-yl)-amide], for which the figures for the 50% inhibitory concentration (IC50) at human CB1 receptor and at human CB2 receptor were 5520 nM and 3900 nM, respectively.

As to `CC(NC(=O)C1CCCc2c1nn(Cc1ccccc1)c2-c1ccc(Cl)cc1)C1CCCCC1` (stereo not drawn) [Cpd 5, 2-benzyl-3-(4-chloro-phenyl)-4,5,6,7-tetrahydro-2H-indazole-7-carboxylic acid (1-cyclohexyl-ethyl)-amide], the half-inhibitory concentration (IC50) was found to be 700 nM at human CB1 receptor and 6100 nM at human CB2 receptor.

For `Cc1ccc(-c2c3c(nn2Cc2ccccc2)C(C(=O)NC2C4(C)CCC(C4)C2(C)C)CCC3)cc1` (stereo not drawn) [Cpd 6, 2-benzyl-3-p-tolyl-4,5,6,7-tetrahydro-2H-indazole-7-carboxylic acid (1,3,3-trimethyl-bicyclo[2.2.1]hept-2-yl)-amide], the IC50 on human CB1 receptor stood at 400 nM; at human CB2 receptor it was 840 nM.

Take `Cc1ccc(-c2c3c(nn2Cc2ccccc2)C(C(=O)NC(C)C24CC5CC(CC(C5)C2)C4)CCC3)cc1` (stereo not drawn) [Cpd 7, 2-benzyl-3-p-tolyl-4,5,6,7-tetrahydro-2H-indazole-7-carboxylic acid (1-adamantan-1-yl-ethyl)-amide]: the results for the IC50 on human CB1 receptor and on human CB2 receptor were 370 nM and 800 nM, respectively.

Turning to `Cc1ccc(-c2c3c(nn2Cc2ccccc2)C(C(=O)NC(C)C2CCCCC2)CCC3)cc1` (stereo not drawn) [Cpd 8, 2-benzyl-3-p-tolyl-4,5,6,7-tetrahydro-2H-indazole-7-carboxylic acid (1-cyclohexyl-ethyl)-amide], the IC50 at human CB1 receptor stood at 240 nM; on human CB2 receptor, 1100 nM.

With `CC(NC(=O)C1CCCc2c1nn(Cc1ccccc1)c2-c1cccc(F)c1)C1CCCCC1` (stereo not drawn) [Cpd 9, 2-benzyl-3-(3-fluoro-phenyl)-4,5,6,7-tetrahydro-2H-indazole-7-carboxylic acid (1-cyclohexyl-ethyl)-amide], the IC50 on human CB1 receptor was found to be 3500 nM; at human CB2 receptor it was 2130 nM.

For `COc1ccc(-n2nc3c(c2-c2ccc(C)cc2)CCCC3C(=O)N[C@H]2C3(C)CCC(C3)C2(C)C)cc1` (stereo partly drawn) [Cpd 16, 2-(4-methoxy-phenyl)-3-p-tolyl-4,5,6,7-tetrahydro-2H-indazole-7-carboxylic acid [(2S)-1,3,3-trimethyl-bicyclo[2.2.1]hept-2-yl]-amide], on human CB1 receptor (radioligand CP-55,940 0.2 nM, average where two or more values, read-out: Cannabinoid CB1 Receptor Binding IC50), the IC50 was 180 nM. The inhibition at 25 µM at human CB2 receptor (setting [1]) is 66%.

As to `COc1ccc(-n2nc3c(c2-c2ccc(C)cc2)CCCC3C(=O)N[C@@H]2C3CCC(C3)[C@@H]2CO)cc1` (stereo partly drawn) [Cpd 17, 2-(4-methoxy-phenyl)-3-p-tolyl-4,5,6,7-tetrahydro-2H-indazole-7-carboxylic acid [(2R,3S)-3-hydroxymethyl-bicyclo[2.2.1]hept-2-yl]-amide], the figures for the concentration for half-maximal inhibition (IC50) on human CB1 receptor and on human CB2 receptor were 1800 nM and 1570 nM, respectively.

`CC(NC(=O)C1CCCc2c1nn(Cc1ccccc1)c2-c1ccc(Cl)cc1)C12CC3CC(CC(C3)C1)C2` (stereo not drawn) [Cpd 18, 2-benzyl-3-(4-chloro-phenyl)-4,5,6,7-tetrahydro-2H-indazole-7-carboxylic acid (1-adamantan-1-yl-ethyl)-amide]: the concentration for half-maximal inhibition (IC50) at human CB1 receptor came out at 6200 nM; on human CB2 receptor, 1900 nM.

`CC12CCC(C1)C(C)(C)[C@H]2NC(=O)C1CCCc2c1nn(Cc1ccccc1)c2-c1cccc(F)c1` (stereo partly drawn) [Cpd 19, 2-benzyl-3-(3-fluoro-phenyl)-4,5,6,7-tetrahydro-2H-indazole-7-carboxylic acid [(2S)-1,3,3-trimethyl-bicyclo[2.2.1]hept-2-yl]-amide]: the IC50 on human CB1 receptor was 400 nM; at human CB2 receptor, 290 nM.

For `CC(NC(=O)C1CCCc2c1nn(Cc1ccccc1)c2-c1cccc(F)c1)C12CCC3CC(CC3C1)C2` (stereo not drawn) [Cpd 20, 2-benzyl-3-(3-fluoro-phenyl)-4,5,6,7-tetrahydro-2H-indazole-7-carboxylic acid [1-(octahydro-2,5-methano-inden-5-yl)-ethyl]-amide], the figures for the concentration for half-maximal inhibition (IC50) on human CB1 receptor and on human CB2 receptor were 130 nM and 70 nM, respectively.

Take `COc1ccc(-c2c3c(nn2-c2ccc(Cl)cc2Cl)C(C(=O)NN2CCCCC2)CCC3)cc1` (stereo not drawn) [Cpd 21, 2-(2,4-dichloro-phenyl)-3-(4-methoxy-phenyl)-4,5,6,7-tetrahydro-2H-indazole-7-carboxylic acid piperidin-1-ylamide]: the values for the inhibition at 0.2 µM at human CB1 receptor and on human CB2 receptor (setting [1]) were 42% and 18%, respectively.

Turning to `COc1ccc(-c2c3c(nn2-c2ccc(Cl)cc2Cl)C(C(=O)NN2CCCCCC2)CCC3)cc1` (stereo not drawn) [Cpd 22, 2-(2,4-dichloro-phenyl)-3-(4-methoxy-phenyl)-4,5,6,7-tetrahydro-2H-indazole-7-carboxylic acid azepan-1-ylamide], the inhibition at 0.2 µM at human CB1 receptor came to 59%; at human CB2 receptor (setting [1]), 22%.

The compound `COc1ccc(-c2c3c(nn2-c2ccc(Cl)cc2Cl)C(C(=O)N[C@H](C)c2ccccc2)CCC3)cc1` (stereo partly drawn) [Cpd 23, 2-(2,4-dichloro-phenyl)-3-(4-methoxy-phenyl)-4,5,6,7-tetrahydro-2H-indazole-7-carboxylic acid [(1R)-1-phenyl-ethyl]-amide] displayed an IC50 on human CB1 receptor of 8 nM. Also, at human CB2 receptor (setting [1]), the inhibition at 0.2 µM is 28%.

Take `COc1ccc(-c2c3c(nn2-c2ccc(Cl)cc2Cl)[C@H](C(=O)N[C@H](C)c2ccccc2)CCC3)cc1` [Cpd 24, (7R)-2-(2,4-dichloro-phenyl)-3-(4-methoxy-phenyl)-4,5,6,7-tetrahydro-2H-indazole-7-carboxylic acid [(1R)-1-phenyl-ethyl]-amide]: the inhibition at 0.2 µM on human CB1 receptor came to 58%; at human CB2 receptor (setting [1]), 28%.

Consider `COc1ccc(-c2c3c(nn2-c2ccc(Cl)cc2Cl)[C@@H](C(=O)N[C@H](C)c2ccccc2)CCC3)cc1` [Cpd 25, (7S)-2-(2,4-dichloro-phenyl)-3-(4-methoxy-phenyl)-4,5,6,7-tetrahydro-2H-indazole-7-carboxylic acid [(1R)-1-phenyl-ethyl]-amide], for which the half-inhibitory concentration (IC50) at human CB1 receptor stood at 4 nM. Further, the inhibition at 0.2 µM at human CB2 receptor (setting [1]) turned out to be 35%.

`COc1ccc(-c2c3c(nn2-c2ccc(Cl)cc2Cl)C(C(=O)NN(C)c2ccccc2)CCC3)cc1` (stereo not drawn) [Cpd 26, 2-(2,4-dichloro-phenyl)-3-(4-methoxy-phenyl)-4,5,6,7-tetrahydro-2H-indazole-7-carboxylic acid N′-methyl-N′-phenyl-hydrazide] returned an IC50 on human CB1 receptor of 6 nM. In addition, at human CB2 receptor (setting [1]), the inhibition at 0.2 µM turned out to be 32%.

`COc1ccc(-c2c3c(nn2-c2ccc(Cl)cc2Cl)C(C(=O)N[C@H](C)c2ccccn2)CCC3)cc1` (stereo partly drawn) [Cpd 27, 2-(2,4-dichloro-phenyl)-3-(4-methoxy-phenyl)-4,5,6,7-tetrahydro-2H-indazole-7-carboxylic acid [(1R)-1-pyridin-2-yl-ethyl]-amide] came in with an IC50 at human CB1 receptor of 31 nM.

For `COc1ccc(-c2c3c(nn2-c2ccc(Cl)cc2Cl)C(C(=O)NN2CC4CCCC4C2)CCC3)cc1` (stereo not drawn) [Cpd 28, 2-(2,4-dichloro-phenyl)-3-(4-methoxy-phenyl)-4,5,6,7-tetrahydro-2H-indazole-7-carboxylic acid (hexahydro-cyclopenta[c]pyrrol-2-yl)-amide], the figures for the inhibition at 0.2 µM on human CB1 receptor and on human CB2 receptor (setting [1]) were 59% and 23%, respectively.

As for `C[C@@H](NC(=O)C1CCCc2c1nn(-c1ccc(Cl)cc1Cl)c2-c1ccc(Cl)cc1)C1CCCCC1` (stereo partly drawn) [Cpd 29, 3-(4-chloro-phenyl)-2-(2,4-dichloro-phenyl)-4,5,6,7-tetrahydro-2H-indazole-7-carboxylic acid [(1R)-1-cyclohexyl-ethyl]-amide], the IC50 on human CB1 receptor amounted to 1 nM. The inhibition at 0.2 µM on human CB2 receptor (setting [1]) was found to be 7%.

`COC[C@H]1CCCN1NC(=O)C1CCCc2c1nn(-c1ccc(Cl)cc1Cl)c2-c1ccc(OC)cc1` (stereo partly drawn) [Cpd 32, 2-(2,4-dichloro-phenyl)-3-(4-methoxy-phenyl)-4,5,6,7-tetrahydro-2H-indazole-7-carboxylic acid [(2R)-2-methoxymethyl-pyrrolidin-1-yl]-amide]: the inhibition at 0.2 µM was determined as 46% on human CB1 receptor and 6% at human CB2 receptor (setting [1]).
